20 compounds from US20240059698A1 (Accutar Biotechnology Inc., priority 2022, published 2024) can be followed below.

Bounds are passed on as bounds.

The test system of assay [1] is HCC827-YVMA cells (human ERBB2 exon20 insertion mutant A775_G776ins YVMA). The assay can be described thus: Cell growth inhibition (CellTiter-Glo), HCC827-YVMA. Type of assay: cell-based. Particulars: 72 h, HCC827-YVMA cells, 3 days, CellTiter-Glo, read-out: Cell growth inhibition, GI50 (nM) HCC827-YVMA. The method, then: (§1) Generation of HCC827-SVD, HCC827-ASV, and HCC827-YVMA cell lines. The HCC827-SVD cell line was generated by first transducing HCC827 cells (ATCC) with lentiviral particles expressing codon-optimized human EGFR exon 20 insertion mutant D770_N771insSVD, and then selecting under 5 µg/mL puromycin treatment for a week. The resulting cells were further transduced with lentiviral particles carrying EGFR sgRNA and CAS9 to knockout the endogenous alleles of EGER and then selected under 500 µg/mL hygromycin B treatment for two weeks. The limiting dilution approach was used to subsequently generate the single clone of the HCC827-SVD stable cell line. Endogenous EGFR knockout was confirmed by Sanger sequencing of cell genomic DNA, and expression of exogenous mutant EGFR was verified by Western blot analysis.
HCC827-ASV and HCC827-YVMA cell lines were generated in a similar approach as HCC827-SVD, except that HCC827 cells (ATCC) were first transduced with lentiviral particles expressing codon-optimized human EGFR exon 20 insertion mutant V769_D770insASV and human ERBB2 exon20 insertion mutant A775_G776ins YVMA, respectively.
(§2) 2. Cell Growth Inhibition for HCC827, HCC827-SVD, HCC827-ASV, HCC827-YVMA, and A431.
(§3) HCC827(ATCC), HCC827-SVD, HCC827-ASV, and HCC827-YVMA cells were seeded in 96-well plates at 5000 cells/well in 90 μL of RPMI growth medium containing 10% FBS and 1% Penicillin Streptomycin. A431 (ATCC) cells were seeded in 96-well plates at 5000 cells/well in 90 μL of DMEM growth medium containing 10% FBS and 1% Penicillin Streptomycin. Cells were incubated at 37° C. overnight and then administered with 10 μL 10× test compounds prepared in the growth medium at various concentrations. After administration of the compounds, cells were incubated at 37° C. for 3 days. Before the CellTiter-Glo assay, the plates were equilibrated at room temperature for approximately 30 minutes. 100 ul of CellTiter-Glo reagent (Promega) was added to each well. The plates were then incubated at room temperature for 10 minutes and luminescence was recorded by the EnSight® multimode plate reader (PerkinElmer). Table 7 listed selected compounds in cellular growth assay.
For orientation: Cellular ATP, detected with luciferase, serves as a proxy for viable cell number.

Assay [2] deals with HCC827-SVD cells (human EGFR exon 20 insertion mutant D770_N771insSVD). The assay can be described thus: Cell growth inhibition (CellTiter-Glo), HCC827-SVD. Type of assay: cell-based. Particulars: 72 h, 3 days. How it is done:
as §1, §2, §3

The GI50 is the concentration at which growth is held to half of that of the control. With `C=CC(=O)N1CCC(c2c[nH]c3ncnc(Nc4ccc(OCc5ncccc5Cl)c(Cl)c4)c23)CC1` [Compound 35, 1-(4-(4-((3-chloro-4-((3-chloropyridin-2-yl)methoxy)phenyl)amino)-7H-pyrrolo[2,3-d]pyrimidin-5-yl)piperidin-1-yl)prop-2-en-1-one], the 50% growth inhibitory concentration (GI50) in assay [1] and in assay [2] was less than 50 nM each time.

Take `C=CC(=O)N1CCC(c2c[nH]c3ncnc(Nc4ccc(OCc5cccc(F)n5)c(Cl)c4)c23)CC1` [Compound 36, 1-(4-(4-((3-chloro-4-((6-fluoropyridin-2-yl)methoxy)phenyl)amino)-7H-pyrrolo[2,3-d]pyrimidin-5-yl)piperidin-1-yl)prop-2-en-1-one]: the concentration for 50% growth inhibition (GI50) in assay [1] and in assay [2] was less than 50 nM throughout.

As for `C=CC(=O)N1CCC(c2c[nH]c3ncnc(Nc4ccc(OCc5ncccc5F)c(Cl)c4)c23)CC1` [Compound 37, 1-(4-(4-((3-chloro-4-((3-fluoropyridin-2-yl)methoxy)phenyl)amino)-7H-pyrrolo[2,3-d]pyrimidin-5-yl)piperidin-1-yl)prop-2-en-1-one], the GI50 in assay [1] and in assay [2] was less than 50 nM in each case.

Consider `C=CC(=O)N1CCC(c2c[nH]c3ncnc(Nc4ccc(Oc5ccnc(NC(=O)C6CCCC6)c5)c(Cl)c4)c23)CC1` [Compound 38, N-[4-[2-chloro-4-[[5-(1-prop-2-enoyl-4-piperidyl)-7H-pyrrolo[2,3-d]pyrimidin-4-yl]amino]phenoxy]-2-pyridyl]cyclopentanecarboxamide], for which the concentration for 50% growth inhibition (GI50) in assay [1] and in assay [2] was 50 to 200 nM throughout.

Regarding `C=CC(=O)N1CCC(c2c[nH]c3ncnc(Nc4ccc(OCc5ccccn5)c(Br)c4)c23)CC1` [Compound 39, 1-(4-(4-((3-bromo-4-(pyridin-2-ylmethoxy)phenyl)amino)-7H-pyrrolo[2,3-d]pyrimidin-5-yl)piperidin-1-yl)prop-2-en-1-one], the 50% growth inhibitory concentration (GI50) in assay [1] and in assay [2] was less than 50 nM in each case.

For the compound `C=CC(=O)N1CCC(c2c[nH]c3ncnc(Nc4ccc(Oc5ccnc(Nc6ccccn6)c5)c(Cl)c4F)c23)CC1` [Compound 40, 1-(4-(4-((3-chloro-2-fluoro-4-((2-(pyridin-2-ylamino)pyridin-4-yl)oxy)phenyl)amino)-7H-pyrrolo[2,3-d]pyrimidin-5-yl)piperidin-1-yl)prop-2-en-1-one], the GI50 in assay [1] and in assay [2] was less than 50 nM each time.

In the case of `C=CC(=O)N1CCC(c2c[nH]c3ncnc(Nc4ccc(Oc5ccn(-c6ccc7cc[nH]c7n6)n5)cc4F)c23)CC1` [Compound 41, 1-(4-(4-((4-((1-(1H-pyrrolo[2,3-b]pyridin-6-yl)-1H-pyrazol-3-yl)oxy)-2-fluorophenyl)amino)-7H-pyrrolo[2,3-d]pyrimidin-5-yl)piperidin-1-yl)prop-2-en-1-one], the GI50 was in the range of 200 to 1000 nM in assay [1] and 50 to 200 nM in assay [2].

For `C=CC(=O)N1CCC(c2c[nH]c3ncnc(Nc4ccc(Oc5ccnc(NCc6ccccn6)c5)cc4F)c23)CC1` [Compound 42, 1-(4-(4-((2-fluoro-4-((2-((pyridin-2-ylmethyl)amino)pyridin-4-yl)oxy)phenyl)amino)-7H-pyrrolo[2,3-d]pyrimidin-5-yl)piperidin-1-yl)prop-2-en-1-one], the GI50 in assay [1] and in assay [2] was 200 to 1000 nM in each case.

With `C=CC(=O)N1CCC(c2c[nH]c3ncnc(Nc4ccc(Oc5ccnc(N6CCC(C(F)(F)F)C6)c5)c(Cl)c4)c23)CC1` (stereo not drawn) [Compound 43, 1-[4-[4-[3-chloro-4-[[2-[3-(trifluoromethyl)pyrrolidin-1-yl]-4-pyridyl]oxy]anilino]-7H-pyrrolo[2,3-d]pyrimidin-5-yl]-1-piperidyl]prop-2-en-1-one], the GI50 in assay [1] and in assay [2] was 50 to 200 nM each time.

As to `C=CC(=O)N1CCC(c2c[nH]c3ncnc(Nc4ccc(Oc5ccnc(Nc6ccccn6)n5)cc4F)c23)CC1` [Compound 44, 1-(4-(4-((2-fluoro-4-((2-(pyridin-2-ylamino)pyrimidin-4-yl)oxy)phenyl)amino)-7H-pyrrolo[2,3-d]pyrimidin-5-yl)piperidin-1-yl)prop-2-en-1-one], the GI50 in assay [1] and in assay [2] was 200 to 1000 nM in each case.

Turning to `C=CC(=O)N1CCC(c2c[nH]c3ncnc(Nc4ccc(Oc5ccnc(NCC(C)C)n5)cc4F)c23)CC1` [Compound 45, 1-(4-(4-((2-fluoro-4-((2-(isoButylamino)pyrimidin-4-yl)oxy)phenyl)amino)-7H-pyrrolo[2,3-d]pyrimidin-5-yl)piperidin-1-yl)prop-2-en-1-one], the concentration for 50% growth inhibition (GI50) in assay [1] and in assay [2] was 50 to 200 nM in each case.

Consider `C=CC(=O)N1CCC(c2c[nH]c3ncnc(Nc4ccc(Oc5ccnc6cc[nH]c56)c(Cl)c4)c23)CC1` [Compound 46, 1-(4-(4-((4-((1H-pyrrolo[3,2-b]pyridin-7-yl)oxy)-3-chlorophenyl)amino)-7H-pyrrolo[2,3-d]pyrimidin-5-yl)piperidin-1-yl)prop-2-en-1-one], for which the GI50 in assay [1] and in assay [2] was 50 to 200 nM throughout.

Turning to `C=CC(=O)N1CCC(c2c[nH]c3ncnc(Nc4ccc(OCc5cnc(Cn6cncn6)nc5)c(Cl)c4)c23)CC1` [Compound 47, 1-(4-(4-((4-((2-((1H-1,2,4-triazol-1-yl)methyl)pyrimidin-5-yl)methoxy)-3-chlorophenyl)amino)-7H-pyrrolo[2,3-d]pyrimidin-5-yl)piperidin-1-yl)prop-2-en-1-one], the GI50 in assay [1] is 50 to 200 nM; in assay [2] it was less than 50 nM.

`C=CC(=O)N1CCC(c2c[nH]c3ncnc(Nc4ccc(Oc5ccnc(-c6ccn(C)n6)c5)c(Cl)c4)c23)CC1` [Compound 48, 1-(4-(4-((3-chloro-4-((2-(1-methyl-1H-pyrazol-3-yl)pyridin-4-yl)oxy)phenyl)amino)-7H-pyrrolo[2,3-d]pyrimidin-5-yl)piperidin-1-yl)prop-2-en-1-one]: the concentration for 50% growth inhibition (GI50) in assay [1] and in assay [2] was 50 to 200 nM each time.

Consider `C=CC(=O)N1CCC(c2c[nH]c3ncnc(Nc4ccc(Oc5ccnc(Nc6ccccn6)c5)c(Cl)c4)c23)CC1` [Compound 49, 1-(4-(4-((3-chloro-4-((2-(pyridin-2-ylamino)pyridin-4-yl)oxy)phenyl)amino)-7H-pyrrolo[2,3-d]pyrimidin-5-yl)piperidin-1-yl)prop-2-en-1-one], for which the GI50 was less than 50 nM in assay [1] and 50 to 200 nM in assay [2].

For `C=CC(=O)N1CCC(c2c[nH]c3ncnc(Nc4ccc(Oc5ccnc(N6CCC(C(F)(F)F)C6)n5)cc4F)c23)CC1` (stereo not drawn) [Compound 50, 1-(4-(4-((2-fluoro-4-((2-(3-(trifluoromethyl)pyrrolidin-1-yl)pyrimidin-4-yl)oxy)phenyl)amino)-7H-pyrrolo[2,3-d]pyrimidin-5-yl)piperidin-1-yl)prop-2-en-1-one], the concentration for 50% growth inhibition (GI50) in assay [1] lay within 50 to 200 nM; in assay [2], 200 to 1000 nM.

Consider `C=CC(=O)N1CCC(c2c[nH]c3ncnc(Nc4ccc(Oc5ccnc(C6CCC6)c5)cc4F)c23)CC1` [Compound 51, 1-(4-(4-((4-((2-cycloButylpyridin-4-yl)oxy)-2-fluorophenyl)amino)-7H-pyrrolo[2,3-d]pyrimidin-5-yl)piperidin-1-yl)prop-2-en-1-one], for which the 50% growth inhibitory concentration (GI50) in assay [1] and in assay [2] was 200 to 1000 nM in each case.

Turning to `C=CC(=O)N1CCC(c2c[nH]c3ncnc(Nc4ccc(OCc5nncs5)c(Cl)c4)c23)CC1` [Compound 52, 1-(4-(4-((4-((1,3,4-thiadiazol-2-yl)methoxy)-3-chlorophenyl)amino)-7H-pyrrolo[2,3-d]pyrimidin-5-yl)piperidin-1-yl)prop-2-en-1-one], the concentration for 50% growth inhibition (GI50) in assay [1] and in assay [2] was less than 50 nM throughout.

With `C=CC(=O)N1CCC(c2c[nH]c3ncnc(Nc4ccc(Oc5ccnc(-c6cccc(C(F)(F)F)c6)c5)cc4F)c23)CC1` [Compound 53, 1-(4-(4-((2-fluoro-4-((2-(3-(trifluoromethyl)phenyl)pyridin-4-yl)oxy)phenyl)amino)-7H-pyrrolo[2,3-d]pyrimidin-5-yl)piperidin-1-yl)prop-2-en-1-one], the GI50 in assay [1] and in assay [2] was 200 to 1000 nM throughout.

In the case of `C=CC(=O)N1CCC(c2c[nH]c3ncnc(Nc4ccc(Oc5cccc(C(F)(F)F)c5)c(Cl)c4)c23)CC1` [Compound 225, 1-[4-[4-[3-chloro-4-[3-(trifluoromethyl)phenoxy]anilino]-7H-pyrrolo[2,3-d]pyrimidin-5-yl]-1-piperidyl]prop-2-en-1-one], in assay [1], the 50% growth inhibitory concentration (GI50) is less than 50 nM.
